Experimental data from ChEMBL document CHEMBL4480383, “Synthesis of saccharocin from apramycin and evaluation of its ribosomal selectivity” (Medchemcomm, 2019).
Converted amounts (≈) assume the structure as drawn.

How the values were obtained:
Bacterial 70S ribosome = assay: Antiribosomal activity against wild type bacterial ribosomes assessed as inhibition of luciferase production by cell-free translation assay; format: subcellular, Bacteria
Pseudomonas aeruginosa = assay: Antibacterial activity against Pseudomonas aeruginosa AG220; format: functional
[1] = Antiribosomal activity against humanized bacterial ribosome incorporating A1555G mutant of human mitochondrial ribosome assessed as inhibition of luciferase production by cell-free translation assay
[2] = Antiribosomal activity against humanized bacterial ribosome incorporating human cytoplasmic ribosome Cyt14 assessed as inhibition of luciferase production by cell-free translation assay
Klebsiella pneumoniae = assay: Antibacterial activity against Klebsiella pneumoniae AG215; format: functional
Enterobacter cloacae = assay: Antibacterial activity against Enterobacter cloacae AG290; format: functional
Escherichia coli = assay: Antibacterial activity against Escherichia coli AG001; format: functional
[3] = Selectivity ratio of IC50 for antiribosomal activity against humanized bacterial ribosome incorporating human cytoplasmic ribosome Cyt14 to IC50 for antiribosomal activity against wild type bacterial ribosomes
[4] = Antiribosomal activity against humanized bacterial ribosome incorporating complete decoding A site from human mitochondrial ribosome Mit13 assessed as inhibition of luciferase production by cell-free translation assay
[5] = Selectivity ratio of IC50 for antiribosomal activity against humanized bacterial ribosome incorporating complete decoding A site from human mitochondrial ribosome Mit13 to IC50 for antiribosomal activity against wild type bacterial ribosomes
[6] = Selectivity ratio of IC50 for antiribosomal activity against humanized bacterial ribosome incorporating A1555G mutant of human mitochondrial ribosome to IC50 for antiribosomal activity against wild type bacterial ribosomes
Acinetobacter baumannii = assay: Antibacterial activity against Acinetobacter baumannii AG309; format: functional
Staphylococcus aureus = assay: Antibacterial activity against Methicillin-resistant Staphylococcus aureus AG038; format: functional

Compound | IC50 (Bacterial 70S ribosome) [µM] | Activity (Pseudomonas aeruginosa) [µg/mL] | IC50 [1] [µg/mL] | IC50 [2] [µg/mL] | Activity (Klebsiella pneumoniae) [µg/mL] | Activity (Enterobacter cloacae) [µg/mL] | Activity (Escherichia coli) [µg/mL] | Ratio IC50 [3] | IC50 [4] [µg/mL] | Ratio IC50 [5] | Ratio IC50 [6] | Activity (Acinetobacter baumannii) [µg/mL] | Activity (Staphylococcus aureus) [µg/mL]
CN[C@@H]1[C@@H](O[C@H]2O[C@H](CO)[C@@H](N)[C@H](O)[C@H]2O)O[C@H]2C[C@@H](N)[C@@H](O[C@H]3[C@H](O)[C@@H](O)[C@H](N)C[C@@H]3N)O[C@@H]2[C@@H]1O | 0.145 | 4 | 40 (≈ 74.1 µM) | 69 (≈ 128 µM) | 1 to 2 | 2 to 4 | 4 | 885 | 67 (≈ 124 µM) | 859 | 513 | 4 | 4
CN[C@@H]1[C@@H](O[C@H]2O[C@H](CO)[C@@H](O)[C@H](O)[C@H]2O)O[C@H]2C[C@@H](N)[C@@H](O[C@H]3[C@H](O)[C@@H](O)[C@H](N)C[C@@H]3N)O[C@@H]2[C@@H]1O | 0.296 | 8 to 16 | 307 (≈ 568 µM) | 437 (≈ 808 µM) | 4 | 4 to 8 | 8 to 16 | 2730 | > 500 | > 3120 | 1920 | 8 | 32
